Measured values reported in patent publication US20110054033A1, “METHODS OF USING ABSCISIC ACID FOR AMELIORATING HYPERTENSION AND VASCULAR INFLAMMATION” (Virginia Tech Intellectual Properties, Inc., priority 2009, published 2011).

Columns and labels:
[1] = system: E-selectin; experiment: Aortic gene expression by real-time RT-PCR: E-selectin; assay type: in vivo, mice; conditions: P=0.20
Method: FIG. 6 are graphs showing that ABA decreases immune cell infiltration in aortas of ApoE−/− mice and reduces pro-inflammatory gene expression. ApoE −/− mice were fed high fat diets created with or without 100 mg/kg diet racemic abscisic acid (ABA). (A) Infiltration of F4/80^+CD11b^+ macrophages and CD4^+ T-cells into the aorta were assessed with flow cytometry. Gene expression in the aorta of pro-inflammatory markers (B) vascular cell adhesion molecule 1 (VCAM-1), (C) monocyte chemoattractant protein 1 (MCP-1), (D) E-selectin, (F) peroxisome proliferator-activated receptor γ (PPAR γ), and (G) CD36 were measured as a ratio to the housekeeping gene β-actin. (H) MCP-1 protein concentrations (pg/mL) were measured by ELISA. Data were analyzed as a completely randomized design.
Total RNA was isolated from aortas using the RNA isolation Minikit (Qiagen) according to the manufacturer's instructions. […] Each gene amplicon was purified with the MiniElute PCR Purification Kit (Qiagen) and quantitated on an agarose gel by using a DNA mass ladder (Promega). […]
Complementary DNA (cDNA) concentrations for genes of interest were examined by real-time quantitative PCR using an iCycler IQ System and the iQ SYBR green supermix (Bio-Rad). […] Results are presented as a starting quantity of target cDNA (picograms) per microgram of total RNA. […]

[2] = system: ApoE-deficient mice; experiment: Histology analyses of the aorta (areas, thickness, lesion severity); assay type: in vivo
Method: FIG. 4 are photos and graphs showing aortas collected on day 84 of dietary intervention. Representative photomicrographs (100×) of aortic root specimens from (A) control and (B) ABA-fed mice. (C) Analysis of lumenal areas and (D) tunica media areas were performed with aortic cross-sections using Image Pro Plus software. (E) Aortic thickness was analyzed as a ratio of the intima to the media. Gene expression in the aorta of (F) endothelial nitric oxide synthase (eNOS) and (G) 15-lipoxygenase (15-LOX) were measured as a ratio to the house-keeping gene β-actin. Data were analyzed as a completely randomized design.
FIG. 5 are photos and graphs showing histological examination of aortic lesions. ApoE −/− mice were fed high fat diets created with or without abscisic acid (ABA, 100 mg/kg diet). After 84 days aortas were excised and lesions were analyzed histologically according to methods described by van Vlijmen et al[13]. Representative photomicrographs (100×) of a (A) mild and (B) severe lesion are depicted. (C) The total number of mild (categories 1-3) and severe (categories 4-5) lesions from control and ABA-fed mice are shown. (D) Lesional areas, as a percent of total lumen area, for control and ABA-fed mice were calculated from histological sections with Image Pro Plus software. Data are represented as mean±standard error.
The aortic root sections used for histological analyses were perfusion-fixed with paraformaldehyde. Samples of aortas were cut transversally, stained with hematoxylin and eosin, and analyzed histologically. Areas for the lumen, tunica media, and aortic lesions and the thicknesses of the tunica intima and media were assessed using Image Pro Plus 6.1 software (Media Cybernetics, Bethesda, Md.). For thickness analyses, eight different measurements from the intima and media were taken using previously described methods (Hazell et al., Free Radic. Biol. Med. 31:1254-62, 2001). For semiquantitative assessment of lesion severity, methods described by van Vlijmen et al were used (van Vlijmen et al., J. Clin. Invest. 93:1403-10, 1994). Briefly, lesions were classified into five categories (1) early fatty streak: per section up to 10 foam cells present in the intima, (2) regular fatty streak: more than 10 cells present in the intima, (3) mild plaque: extension of foam cells into the media and mild fibrosis of the media without significant loss in architecture, (4) moderate plaque: foam cells in media, fibrosis, cholesterol clefts, mineralization, and/or necrosis of the media, (5) severe plaque: as 4 but more extensive and deeper in the media. Scoring classifications were applied to 15 lesions from control and ABA-fed mice. Lesions falling in categories 1-3 were classified as mild and 4-5 as severe.

## CC1=CC(=O)CC(C)(C)C1(O)/C=C/C(C)=C\C(=O)O (racemic) [ABA, abscisic acid]
[1]
  E-selectin mRNA expression in the aortic roots vs control: reduced, though not to statistical significance
[2]; day 84
  Lesion area as a percent of total lumenal area vs control: significantly decreased
[2]; day 84, aortic cross-sections
  Aortic luminal area vs control: no significant differences
  Aortic tunica media area vs control: no significant differences
[2]; day 84, aortic root
  Intima to media ratio vs control: significantly lower
[2]; of 15 lesions scored, day 84
  Number of mild lesions (categories 1-3): 10
[2]; of 15 lesions scored, day 84, control-fed mice 8 of 15
  Number of severe lesions (categories 4-5): 5
